Test results from patent US20230085307A1, “PYRIDAZINONE COMPOUND AND HERBICIDE” (NISSAN CHEMICAL CORPORATION, priority 2019, published 2023).

Columns and labels:
blackgrass [1] = experiment: Test Example 4: herbicidal effect by soil treatment (Table 19, symbol J); type: in vivo, blackgrass (Alopecurus myosuroides); details: AAH 80 g/ha
How it was run: (§1)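 Step 1: sow seeds in sterilized diluvial soil, cover ~1.5 cm. Step 2: spray diluted emulsion onto soil surface at predetermined rate. Step 3: greenhouse, 25–30° C, three weeks. Step 4: grade effect on each plant by earlier criteria.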

windgrass [2] = experiment: Test Example 5: herbicidal effect by foliage application, plastic box (Table 20, symbol L); type: in vivo, windgrass (Apera spica-venti); details: foliage application, 80 g/ha, 3 weeks after application
How it was run: (§2)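 Foliar spray test: emulsion formulation diluted in water to a set application rate, sprayed onto 14-day-old plants raised in diluvial soil at 25° C to 30° C under glass. Both herbicidal effect and crop effect rated visually three weeks later.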

green foxtail [3] = experiment: Test Example 5: herbicidal effect by foliage application, plastic box (Table 20, symbol G); type: in vivo, green foxtail (Setaria viridis); details: foliage application, 80 g/ha, 3 weeks after application
How it was run: as §2

windgrass [4] = experiment: Test Example 4: herbicidal effect by soil treatment (Table 19, symbol L); type: in vivo, windgrass (Apera spica-venti); details: AAH 80 g/ha
How it was run: as §1

velvetleaf [5] = experiment: Test Example 5: herbicidal effect by foliage application, plastic box (Table 20, symbol M); type: in vivo, velvetleaf (Abutilon theophrasti); details: foliage application, 80 g/ha, 3 weeks after application
How it was run: as §2

barnyard grass [6] = experiment: Test Example 5: herbicidal effect by foliage application, plastic box (Table 20, symbol H); type: in vivo, barnyard grass (Echinochloa crus-galli); details: foliage application, 80 g/ha, 3 weeks after application
How it was run: as §2

persian speedwell [7] = experiment: Test Example 4: herbicidal effect by soil treatment (Table 19, symbol R); type: in vivo, Persian speedwell (Veronica persica); details: AAH 80 g/ha
How it was run: as §1

redroot pigweed = experiment: Test Example 4: herbicidal effect by soil treatment (Table 19, symbol N); type: in vivo, redroot pigweed (Amaranthus retroflexus); details: AAH 80 g/ha
How it was run: as §1

Chinese sprangletop = experiment: Test Example 3: herbicidal effect by foliage application, Wagner pot (Table 18, symbol D); type: in vivo, chinese sprangletop (Leptochloa chinensis); details: 80 g/ha
How it was run: (§3)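 Plants were sown in alluvial soil held under 0.1–0.5 cm standing water and grown 14 days in a greenhouse at 25–30 °C. An emulsifiable formulation, water-diluted to the set dose, was then sprayed onto the foliage, and effects were scored three weeks later using previously defined criteria.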

Italian ryegrass [8] = experiment: Test Example 4: herbicidal effect by soil treatment (Table 19, symbol K); type: in vivo, Italian ryegrass (Lolium multiflorum); details: AAH 80 g/ha
How it was run: as §1

wild oat [9] = experiment: Test Example 5: herbicidal effect by foliage application, plastic box (Table 20, symbol I); type: in vivo, wild oat (Avena fatua); details: foliage application, 80 g/ha, 3 weeks after application
How it was run: as §2

barnyard grass [10] = experiment: Test Example 4: herbicidal effect by soil treatment (Table 19, symbol H); type: in vivo, barnyard grass (Echinochloa crus-galli); details: AAH 80 g/ha
How it was run: as §1

persian speedwell [11] = experiment: Test Example 5: herbicidal effect by foliage application, plastic box (Table 20, symbol R); type: in vivo, Persian speedwell (Veronica persica); details: foliage application, 80 g/ha, 3 weeks after application
How it was run: as §2

chickweed = experiment: Test Example 4: herbicidal effect by soil treatment (Table 19, symbol P); type: in vivo, common chickweed (Stellaria media); details: AAH 80 g/ha
How it was run: as §1

barnyard grass [12] = experiment: Test Example 3: herbicidal effect by foliage application, Wagner pot (Table 18, symbol H); type: in vivo, barnyard grass (Echinochloa crus-galli); details: 80 g/ha
How it was run: as §3

green foxtail [13] = experiment: Test Example 4: herbicidal effect by soil treatment (Table 19, symbol G); type: in vivo, green foxtail (Setaria viridis); details: AAH 80 g/ha
How it was run: as §1

southern crabgrass [14] = experiment: Test Example 5: herbicidal effect by foliage application, plastic box (Table 20, symbol F); type: in vivo, southern crabgrass (Digitaria ciliaris); details: foliage application, 80 g/ha, 3 weeks after application
How it was run: as §2

wild oat [15] = experiment: Test Example 4: herbicidal effect by soil treatment (Table 19, symbol I); type: in vivo, wild oat (Avena fatua); details: AAH 80 g/ha
How it was run: as §1

velvetleaf [16] = experiment: Test Example 4: herbicidal effect by soil treatment (Table 19, symbol M); type: in vivo, velvetleaf (Abutilon theophrasti); details: AAH 80 g/ha
How it was run: as §1

southern crabgrass [17] = experiment: Test Example 4: herbicidal effect by soil treatment (Table 19, symbol F); type: in vivo, southern crabgrass (Digitaria ciliaris); details: AAH 80 g/ha
How it was run: as §1

lambsquarters [18] = experiment: Test Example 5: herbicidal effect by foliage application, plastic box (Table 20, symbol O); type: in vivo, lambsquarters (Chenopodium album); details: foliage application, 80 g/ha, 3 weeks after application
How it was run: as §2

lambsquarters [19] = experiment: Test Example 4: herbicidal effect by soil treatment (Table 19, symbol O); type: in vivo, lambsquarters (Chenopodium album); details: AAH 80 g/ha
How it was run: as §1

rice flat sedge = experiment: Test Example 3: herbicidal effect by foliage application, Wagner pot (Table 18, symbol E); type: in vivo, rice flat sedge (Cyperus iria); details: 80 g/ha
How it was run: as §3

Italian ryegrass [20] = experiment: Test Example 5: herbicidal effect by foliage application, plastic box (Table 20, symbol K); type: in vivo, Italian ryegrass (Lolium multiflorum); details: foliage application, 80 g/ha, 3 weeks after application
How it was run: as §2

blackgrass [21] = experiment: Test Example 5: herbicidal effect by foliage application, plastic box (Table 20, symbol J); type: in vivo, blackgrass (Alopecurus myosuroides); details: foliage application, 80 g/ha, 3 weeks after application
How it was run: as §2

## COc1nn(C)c(=O)c(-c2c(-c3ccsc3)sc3ccccc23)c1O [1-192]
Blackgrass [1]
  J: blackgrass, herbicidal effect rating: 0 (Herbicidal rate of 5% or less (almost no effect))
Windgrass [2]
  effect on windgrass (L): 0 (Herbicidal rate of 5% or less (almost no effect))
Green foxtail [3]
  effect on green foxtail (G): 0 (Herbicidal rate of 5% or less (almost no effect))
Windgrass [4]
  L: windgrass, herbicidal effect rating: 0 (Herbicidal rate of 5% or less (almost no effect))
Velvetleaf [5]
  effect on velvetleaf (M): 0 (Herbicidal rate of 5% or less (almost no effect))
Barnyard grass [6]
  effect on barnyard grass (H): 0 (Herbicidal rate of 5% or less (almost no effect))
Persian speedwell [7]
  R: persian speedwell, herbicidal effect rating: 0 (Herbicidal rate of 5% or less (almost no effect))
Redroot pigweed
  N: redroot pigweed, herbicidal effect rating: 0 (Herbicidal rate of 5% or less (almost no effect))
Chinese sprangletop
  herbicidal effect on D (Chinese sprangletop), rating 0-5: 4 (Herbicidal rate of 70% or more and less than 90%)
Italian ryegrass [8]
  K: Italian ryegrass, herbicidal effect rating: 0 (Herbicidal rate of 5% or less (almost no effect))
Wild oat [9]
  effect on wild oat (I): 0 (Herbicidal rate of 5% or less (almost no effect))
Barnyard grass [10]
  H: barnyard grass, herbicidal effect rating: 0 (Herbicidal rate of 5% or less (almost no effect))
Persian speedwell [11]
  effect on persian speedwell (R): 3 (Herbicidal rate of 40% or more and less than 70%)
chickweed
  P: chickweed, herbicidal effect rating: 3 (Herbicidal rate of 40% or more and less than 70%)
Barnyard grass [12]
  herbicidal effect on H (barnyard grass), rating 0-5: 1 (Herbicidal rate of 5% or more and less than 20%)
Green foxtail [13]
  G: green foxtail, herbicidal effect rating: 0 (Herbicidal rate of 5% or less (almost no effect))
Southern crabgrass [14]
  effect on southern crabgrass (F): 0 (Herbicidal rate of 5% or less (almost no effect))
Wild oat [15]
  I: wild oat, herbicidal effect rating: 0 (Herbicidal rate of 5% or less (almost no effect))
Velvetleaf [16]
  M: velvetleaf, herbicidal effect rating: 0 (Herbicidal rate of 5% or less (almost no effect))
Southern crabgrass [17]
  F: southern crabgrass, herbicidal effect rating: 0 (Herbicidal rate of 5% or less (almost no effect))
Lambsquarters [18]
  effect on lambsquarters (O): 0 (Herbicidal rate of 5% or less (almost no effect))
Lambsquarters [19]
  O: lambsquarters, herbicidal effect rating: 0 (Herbicidal rate of 5% or less (almost no effect))
Rice flat sedge
  herbicidal effect on E (rice flat sedge), rating 0-5: 4 (Herbicidal rate of 70% or more and less than 90%)
Italian ryegrass [20]
  effect on Italian ryegrass (K): 0 (Herbicidal rate of 5% or less (almost no effect))
Blackgrass [21]
  effect on blackgrass (J): 0 (Herbicidal rate of 5% or less (almost no effect))
